Data: patent US20250162989A1, “USP30 INHIBITORS AND USES THEREOF” (Vincere Biosciences, Inc., priority 2021, published 2025)
Read-outs that look alike come from different tables or passages of the source.

Key:
[1] = biological target: recombinant USP30 (amino acids 57-517 of the human sequence) (Homo sapiens (Human), UniProt Q70CQ3); experiment: In vitro USP30 biochemical assay (Ubiquitin-Rhodamine substrate); details: fluorescence
Protocol: In vitro biochemical assay to establish the potency of compounds for USP30 inhibition: a 384-well plate assay using a fluorophore tagged substrate of USP30 was used for in vitro screening of compounds. Each compound was tested at
10 different concentrations (0.5 to 10,000 nM) in duplicate wells. […] Data were analyzed using Graph Pad Prism software with a four-parameter (floating slope) fit to log concentration data to determine IC50s.

USP30 = USP30 (Homo sapiens (Human), UniProt Q70CQ3); experiment: Dundee MALDI-TOF mass spectrometry assay (K48-linked diubiquitin cleavage); type: biochemical; details: USP30 25 ng/μl, K48-linked diubiquitin 5.6 μM
USP30, sequence (Q70CQ3 whole entry): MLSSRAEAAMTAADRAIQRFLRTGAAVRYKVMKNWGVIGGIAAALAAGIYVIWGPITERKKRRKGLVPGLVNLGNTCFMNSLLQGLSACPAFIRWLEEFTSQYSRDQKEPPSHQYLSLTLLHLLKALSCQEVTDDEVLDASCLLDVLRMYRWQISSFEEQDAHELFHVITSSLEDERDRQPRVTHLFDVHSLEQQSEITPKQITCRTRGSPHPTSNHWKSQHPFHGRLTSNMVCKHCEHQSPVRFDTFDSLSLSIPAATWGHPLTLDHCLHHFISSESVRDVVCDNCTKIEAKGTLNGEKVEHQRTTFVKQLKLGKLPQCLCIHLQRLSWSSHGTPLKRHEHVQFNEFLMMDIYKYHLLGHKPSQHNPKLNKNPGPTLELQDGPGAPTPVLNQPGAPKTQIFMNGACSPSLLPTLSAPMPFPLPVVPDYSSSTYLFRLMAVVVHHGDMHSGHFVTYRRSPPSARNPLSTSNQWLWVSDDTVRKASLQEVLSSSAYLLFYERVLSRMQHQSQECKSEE
Protocol: USP30 was diluted in a buffer containing 40 mM Tris, 0.01% BSA, 1 mM DTT and K48 in 40 mM Tris, 0.01% BSA.
The compounds were pre-incubated with the USP30 for 5 mins at room temp before the K48 dimer addition. The assay mixture was then incubated for 45 mins at room temp. The assay was stopped by the addition of TFA to a final concentration of 2% (v/v).
Acidified samples of the DUB assays were mixed with 0.5 mM 15N-ubiquitin and then with one part of 2% (v/v) TFA and one part of 2.5 DHAP matrix solution (7.6 mg of 2.5 DHAP in […] ethanol and […] of an aqueous 12 mg ml 1 diammonium hydrogen citrate).

[2] = 1.5 nM recombinant USP30, 25 nM Ubiquitin-Rhodamine
[3] = […] recombinant USP30, 25 nM Ubiquitin-Rhodamine

recombinant USP30 (amino acids 57-517 of the human sequence), sequence (Q70CQ3 57-517): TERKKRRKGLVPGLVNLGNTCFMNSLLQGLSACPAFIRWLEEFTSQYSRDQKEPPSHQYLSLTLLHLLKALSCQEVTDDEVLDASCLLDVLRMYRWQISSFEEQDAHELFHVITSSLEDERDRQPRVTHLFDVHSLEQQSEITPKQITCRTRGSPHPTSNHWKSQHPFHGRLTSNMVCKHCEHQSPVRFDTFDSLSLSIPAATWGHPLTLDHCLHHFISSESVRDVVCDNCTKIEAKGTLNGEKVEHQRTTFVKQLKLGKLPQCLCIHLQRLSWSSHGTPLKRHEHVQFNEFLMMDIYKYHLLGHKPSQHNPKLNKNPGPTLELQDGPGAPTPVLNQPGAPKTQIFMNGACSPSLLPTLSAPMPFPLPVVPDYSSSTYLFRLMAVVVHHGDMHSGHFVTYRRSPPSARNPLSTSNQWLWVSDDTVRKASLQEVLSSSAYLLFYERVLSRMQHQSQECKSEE

SMILES | IC50 [1, 2] [µM] | IC50 (USP30; read-out: USP30 IC50 μM (avg)) [µM] | IC50 (USP30; read-out: IC50) [µM] | IC50 [1, 3] [µM]
CC(C)(C)NS(=O)(=O)c1ccc(NC(=O)[C@H](CC2CCN(CCC(F)(F)F)CC2)NC(=O)c2ccc(F)cc2)cn1 [Compound I-208] | 0.05 to 1 | 0.05 to 1 | – | –
CC(CO)(CO)NS(=O)(=O)c1ccc(NC(=O)[C@H](Cc2ccccc2)NC(=O)c2ccc(F)cc2)cc1 [Compound I-132] | 0.05 to 1 | < 0.05 | – | –
Cn1nccc1CNS(=O)(=O)c1ccc(NC(=O)[C@H](Cc2ccccc2)NC(=O)c2ccc(F)cc2)cc1 [Compound I-205] | 0.05 to 1 | 0.05 to 1 | – | –
CN1CCC(C[C@H](NC(=O)c2ccc(F)cc2)C(=O)Nc2ccc(S(=O)(=O)NC3COC3)cc2)CC1 [Compound I-99] | 0.05 to 1 | 0.05 to 1 | – | –
COc1cc(NC(=O)[C@H](CC2CCOCC2)NC(=O)c2ccc(F)cc2)cnc1S(=O)(=O)NC1CCCC1 [Compound I-82] | 0.05 to 1 | < 0.05 | – | –
CCNS(=O)(=O)c1ccc(NC(=O)[C@H](Cc2ccccc2)NC(=O)c2ccc(F)cc2)cc1O [Compound I-67, (S)—N-(1-(4-(N-ethylsulfamoyl)-3-hydroxyphenylamino)-1-oxo-3-phenylpropan-2-yl)-4-fluorobenzamide] | 0.05 to 1 | – | < 0.05 | –
O=C(N[C@@H](Cc1ccccc1)C(=O)Nc1ccc(S(=O)(=O)NC23CC(C2)C3)c(C(F)(F)F)c1)c1ccc(F)cc1 [Compound I-69] | 0.05 to 1 | – | < 0.05 | –
CC(=O)N1CCC(C[C@H](NC(=O)c2ccc(F)cc2)C(=O)Nc2ccc(S(=O)(=O)NC(C)(C)C)nc2)CC1 [Compound I-156] | – | < 0.05 | – | < 0.05
CC(C)(C)NS(=O)(=O)c1ccc(NC(=O)[C@H](CC2CCOCC2)NC(=O)c2ccc(F)cn2)cc1 [Compound I-177] | – | < 0.05 | – | < 0.05
CNCCN1CCC(C[C@H](NC(=O)c2ccc(F)cc2)C(=O)Nc2ccc(S(=O)(=O)NC(C)(C)C)cc2)CC1 [Compound I-171] | – | < 0.05 | – | < 0.05
COc1cc(NC(=O)[C@H](CC2CCOCC2)NC(=O)c2ccc(F)cc2)ccc1S(=O)(=O)NC1CCC1 [Compound I-86] | – | < 0.05 | – | < 0.05
CC(C)(C)NS(=O)(=O)c1ccc(NC(=O)[C@H](Cc2ccccc2)NC(=O)c2ccon2)cc1 [Compound I-167] | 0.05 to 1 | 0.05 to 1 | – | –
CC(C)(C)NS(=O)(=O)c1ccc(NC(=O)[C@H](CC2CCOCC2)NC(=O)c2ccc(F)nc2)cc1 [Compound I-196] | – | < 0.05 | – | < 0.05
COc1cc(NC(=O)[C@H](CC2CCN(C)CC2)NC(=O)c2ccc(F)cc2)ccc1S(=O)(=O)NC1CCOCC1 [Compound I-143] | 0.05 to 1 | 0.05 to 1 | – | –
O=C(N[C@@H](Cc1ccccc1)C(=O)Nc1ccc(S(=O)(=O)NC2(CO)CC2)nc1)c1ccc(F)cc1 [Compound I-150] | 0.05 to 1 | < 0.05 | – | –
CC(C)C(=O)N1CCC(C[C@H](NC(=O)c2ccc(F)cc2)C(=O)Nc2ccc(S(=O)(=O)NC(C)(C)C)cc2)CC1 [Compound I-161] | – | < 0.05 | – | < 0.05
CC(C)(NS(=O)(=O)c1ccc(NC(=O)[C@H](CC2CCNCC2)NC(=O)c2ccc(F)cn2)cc1)C(F)(F)F [Compound I-199] | 0.05 to 1 | 0.05 to 1 | – | –
CN1CCC(C[C@H](NC(=O)c2ccc(F)cc2)C(=O)Nc2ccc(S(=O)(=O)NC3CCOCC3)cc2)CC1 [Compound I-164] | 0.05 to 1 | < 0.05 | – | –
COc1cc(NC(=O)[C@H](CC2CCOCC2)NC(=O)c2ccc(F)cc2)ccc1S(=O)(=O)NC1CCCC1 [Compound I-87] | – | < 0.05 | – | < 0.05
CC(=O)N1CCC(CC(NC(=O)c2ccc(F)cc2)C(=O)Nc2ccc(S(=O)(=O)NC(C)(C)C)cc2)CC1 (stereo not drawn) [Compound I-101] | – | < 0.05 | – | < 0.05
COc1cc(NC(=O)[C@H](CC2CCOCC2)NC(=O)c2ccc(F)cc2)ccc1S(=O)(=O)NC(C)(C)CO [Compound I-85] | 0.05 to 1 | 0.05 to 1 | – | –

SMILES | IC50 [1, 2] [µM] | IC50 (USP30; read-out: USP30 IC50 μM (avg)) [µM] | IC50 (USP30; read-out: IC50) [µM] | IC50 [1, 3] [µM]
CC(C)(C)NS(=O)(=O)c1ccc(NC(=O)[C@H](CC2CCN(C#N)CC2)NC(=O)c2ccc(F)cc2)cc1 [Compound I-165] | – | < 0.05 | – | < 0.05
COc1cc(NC(=O)[C@H](Cc2ccccc2)NC(=O)c2ccc(F)cc2)ccc1S(=O)(=O)N[C@H](C)CO [Compound I-137] | 0.05 to 1 | < 0.05 | – | –
CC(=O)O[C@@H]1C[C@@H](C(=O)Nc2ccc(S(=O)(=O)NC(C)(C)C)cc2)N(C(=O)c2ccc(F)cc2)C1 [Compound I-266] | 0.05 to 1 | 0.05 to 1 | – | –
CC(C)(C)NS(=O)(=O)c1ccc(NC(=O)[C@H](Cc2ccccc2)NC(=O)c2ccc(F)cc2)cc1C(F)(F)F [Compound I-70, (S)—N-(1-(4-(N-tert-butylsulfamoyl)-3-(trifluoromethyl)phenylamino)-1-oxo-3-phenylpropan-2-yl)-4-fluorobenzamide] | – | – | < 0.05 | < 0.05
COc1cc(NC(=O)[C@H](CC2CCNCC2)NC(=O)c2ccc(F)cc2)ccc1S(=O)(=O)N[C@@H]1CCOC1 [Compound I-110] | 0.05 to 1 | 0.05 to 1 | – | –
CC(C)(CF)NS(=O)(=O)c1ccc(NC(=O)[C@H](CC2CCNCC2)NC(=O)c2ccc(F)cc2)cc1 [Compound I-122] | 0.05 to 1 | < 0.05 | – | –
COc1cc(NC(=O)[C@H](CC2CCNCC2)NC(=O)c2ccc(F)cc2)ccc1S(=O)(=O)NC(C)(C)C [Compound I-155] | 0.05 to 1 | < 0.05 | – | –
C[C@H](CO)NS(=O)(=O)c1ccc(NC(=O)[C@H](Cc2ccccc2)NC(=O)c2ccc(F)cc2)cn1 [Compound I-151] | 0.05 to 1 | < 0.05 | – | –
COc1cc(NC(=O)[C@H](Cc2ccccc2)NC(=O)c2ccc(F)cc2)ccc1S(=O)(=O)NC(C)(CO)CO [Compound I-138] | 0.05 to 1 | < 0.05 | – | –
C[C@H](CO)NS(=O)(=O)c1ccc(NC(=O)[C@H](Cc2ccccc2)NC(=O)c2ccc(F)cc2)cc1 [Compound I-130] | – | < 0.05 | – | < 0.05
CC(C)C[C@H](NC(=O)c1ccc(F)cc1)C(=O)Nc1ccc(S(=O)(=O)N[C@@H]2CCOC2)cc1 [Compound I-71] | 0.05 to 1 | < 0.05 | – | –
CC(C)(C)NS(=O)(=O)c1ccc(NC(=O)[C@H](CC2CCN(Cc3ccccc3)CC2)NC(=O)c2ccc(F)cc2)cc1 [Compound I-115] | – | < 0.05 | – | < 0.05
CC(C)(C)NS(=O)(=O)c1ccc(NC(=O)[C@H](Cc2ccccc2)NC(=O)c2nccs2)cc1 [Compound I-168] | 0.05 to 1 | < 0.05 | – | –
CC(C)(C)NS(=O)(=O)c1ccc(NC(=O)[C@H](Cc2ccccc2)NC(=O)c2ccc(F)nc2)cc1 [Compound I-163] | – | < 0.05 | – | < 0.05
COc1cc(NC(=O)[C@H](CC2CCN(C)CC2)NC(=O)c2ccc(F)cc2)ccc1S(=O)(=O)NC(C)(C)C [Compound I-84] | 0.05 to 1 | < 0.05 | – | –
N#CN1CC[C@@H](NC(=O)[C@H](Cc2ccccc2)NC(=O)c2ccc(F)cc2)C1 [Compound I-125] | 0.05 to 1 | 0.05 to 1 | – | –
O=C(N[C@@H](CC1CCNCC1)C(=O)Nc1ccc(S(=O)(=O)NC2CCOCC2)cc1)c1ccc(F)cc1 [Compound I-157] | 0.05 to 1 | 0.05 to 1 | – | –
CC(C)(NS(=O)(=O)c1ccc(NC(=O)[C@H](Cc2ccccc2)NC(=O)c2ccc(F)cn2)cc1)C(F)(F)F [Compound I-201] | 0.05 to 1 | < 0.05 | – | –
O=C(N[C@@H](CC1CCOCC1)C(=O)Nc1ccc(S(=O)(=O)NC2CCCC2)nc1)c1ccc(F)cc1 [Compound I-97] | – | < 0.05 | – | < 0.05
CC(C)(CF)NS(=O)(=O)c1ccc(NC(=O)[C@H](CC2CCOCC2)NC(=O)c2ccc(F)cc2)cc1 [Compound I-112] | – | < 0.05 | – | < 0.05
Cn1ccc(N2CCC(C[C@H](NC(=O)c3ccc(F)cc3)C(=O)Nc3ccc(S(=O)(=O)NC(C)(C)C)nc3)CC2)n1 [Compound I-293] | – | < 0.05 | – | < 0.05
